In the CheMixHub viscosity set:

Assay: xn = mol fraction of the nth substance listed
Conditions: 101.33 kPa

NCCCN + OCCOCCOCCOCCO
viscosity [mPa·s]
Conditions | 293.15 K | 298.15 K | 303.15 K | 308.15 K | 313.15 K | 318.15 K
x2 = 0.0197 | 2.27 | 1.95 | 1.76 | 1.6 | 1.31 | 1.26
x2 = 0.0407 | 2.72 | 2.32 | 2.08 | 1.86 | – | 1.48
x2 = 0.0631 | 3.37 | 2.84 | 2.52 | 2.25 | 1.97 | 1.75
x2 = 0.0871 | 4.07 | 3.41 | 2.99 | 2.64 | 2.34 | 2.08
x2 = 0.1129 | 5.06 | 4.2 | 3.64 | 3.21 | 2.83 | 2.48
x2 = 0.1406 | 6.38 | 5.25 | 4.48 | 3.92 | 3.42 | 3
x2 = 0.1705 | 8.2 | 6.64 | 5.62 | 4.86 | 4.2 | 3.62
x2 = 0.2028 | 10.6 | 8.44 | 7.08 | 6.05 | 5.2 | 4.42
x2 = 0.238 | 13.9 | 10.9 | 9.08 | 7.62 | 6.48 | 5.45
x2 = 0.2762 | 18.5 | 14.2 | 11.6 | 9.67 | 8.11 | 6.84
x2 = 0.3181 | 24.6 | 18.7 | 15.1 | 12.4 | 10.3 | 8.42
x2 = 0.3641 | 33.1 | 24.9 | 19.6 | 15.8 | 12.8 | 10.5
x2 = 0.4148 | 43.8 | 32.6 | 25.2 | 20.1 | 16.1 | 13
x2 = 0.4711 | 57.6 | 41.4 | 31.7 | 24.9 | 19.7 | 15.8
x2 = 0.5338 | 71.2 | 50.7 | 38.4 | 30 | 23.5 | 18.7
x2 = 0.6042 | 81.6 | 57.9 | 43.7 | 34 | 26.8 | 21
x2 = 0.6838 | 85.1 | 60.9 | 46 | 36 | 28.4 | 22.4
x2 = 0.7745 | 81.2 | 59.1 | 45 | 35.5 | 28.3 | 22.5
x2 = 0.8788 | 71.9 | 53.1 | 41 | 32.7 | 26.4 | 21.1
